Results taken from patent US20200291444A1, “Macrocyclisation Tags” (Oxford University Innovation LTD, priority 2017, published 2020).
No end group written: not given here.

Legend:
PCY1 [1] = assay: PCY1 macrocyclisation of hybrid precursor peptides containing non-amino acids (Maldi); format: biochemical, Saponaria vaccaria; conditions: 16 h incubation with PCY1, Maldi spectrum
Description: All kinetic measurements (activity tests, progress curves and initial-rate experiments) were performed as discontinuous assays analyzing samples via LC/MS or MALDI (10-mer activity test). Reactions were performed in 20 mM Tris pH 8.5, 100 mM NaCl, 5 mM DTT (for progress curves 0.2 mg mL-1 BSA was included).17 Reactions were performed at 30° C. and at various time points 50 μL samples were quenched with 20 μL of 6% (v/v) TFA. Samples (50 μL) were loaded onto a ZORBAX SBC18, 5 μm, 9.4 mm×50 mm (Agilent) column connected to an Agilent LC-MS instrument (G6130B Single Quad, Agilent Technologies). Reactants were separated from products using a gradient from A (H2O with 0.1% formic acid) to 80% B (acetonitrile), at a rate of 1.5 mL/min for 8.75 min. For data analysis, ion count peaks and UV absorbance peaks were integrated using Agilent ChemStation software. For data analysis involving quantitative mass spec integration, calibration curves with macrocyclic peptide product were performed in triplicate in order to linearly correlate ion counts to cyclic product concentration. Data fitting and plotting was performed with Prism 6. […]

GmPOPB_S577A [2] = target: T1, GmPOPB_S577A (Galerina marginata, UniProt H2E7Q8, S577A); assay: ITC binding to inactive mutant GmPOPB_S577A
T1 construct: His-tag (TEV-cleavable) (cleaved yes); made in house; host or cells: E. coli BL21(DE3)
T1 sequence (H2E7Q8 1-730 S577A): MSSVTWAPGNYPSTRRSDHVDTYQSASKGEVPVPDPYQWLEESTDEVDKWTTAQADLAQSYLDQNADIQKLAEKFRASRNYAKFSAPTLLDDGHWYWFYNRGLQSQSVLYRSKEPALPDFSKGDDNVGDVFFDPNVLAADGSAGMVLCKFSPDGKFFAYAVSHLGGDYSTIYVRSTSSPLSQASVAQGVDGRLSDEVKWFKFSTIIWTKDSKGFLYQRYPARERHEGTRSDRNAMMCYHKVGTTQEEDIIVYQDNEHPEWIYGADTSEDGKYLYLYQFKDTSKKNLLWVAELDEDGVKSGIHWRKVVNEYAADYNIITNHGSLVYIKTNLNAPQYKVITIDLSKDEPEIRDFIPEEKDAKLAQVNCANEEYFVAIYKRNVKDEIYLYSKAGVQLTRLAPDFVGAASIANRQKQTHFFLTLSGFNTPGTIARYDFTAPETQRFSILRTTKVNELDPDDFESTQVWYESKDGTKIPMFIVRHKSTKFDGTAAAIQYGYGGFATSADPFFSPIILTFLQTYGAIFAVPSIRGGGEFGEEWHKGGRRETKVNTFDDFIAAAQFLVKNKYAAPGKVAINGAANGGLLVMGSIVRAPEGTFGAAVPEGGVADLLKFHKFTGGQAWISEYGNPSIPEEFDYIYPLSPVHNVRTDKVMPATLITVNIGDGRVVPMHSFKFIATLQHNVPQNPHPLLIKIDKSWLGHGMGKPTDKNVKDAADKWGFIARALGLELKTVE

GmPOPB_S577A [3] = target: T1, GmPOPB_S577A; conditions: previously shown; cited from earlier work
[4] = tested on: T2, 13mer truncated substrate
T2 sequence: IWGIGCNPWTAEH

25mer substrate = tested on: T3, 25mer substrate
T3 sequence: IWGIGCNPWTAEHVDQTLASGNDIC

[5] = tested on: T4, 14mer truncated substrate
T4 sequence: IWGIGCNPWTAEHV

PCY1 [6] = conditions: PCY1 extracted from S. vaccaria seeds; cited from earlier work
PCY1:S562A = assay: ITC equilibrium binding to PCY1:S562A; set-up: species or system Saponaria vaccaria; conditions: ITC, 25° C.
Description: (§1) All PCY1 samples were buffer-exchanged or solubilized into buffer F and further diluted in the same batch of buffer F, in order to minimize buffer mismatches. ITC binding experiments were performed using a cell solution containing PCY1:S562A and a titrant solution with each peptide used. […] The measurements were performed at a stir speed of 750 rpm at 25° C. using a reference power of 10 μcal/s, except for A1-NH2 (5 μcal/s). A buffer titration control in which peptide was titrated into buffer was performed for each experiment. Data processing, fitting to a non-linear one-site binding model, and data plotting was performed using MicroCal PEAQ ITC analysis software (Malvern). […] The measurement was performed in buffer at 30° C., at 750 rpm using a reference power of 5 μcal/s.

PCY1 [7] = assay: LC/MS time course of macrocyclisation by PCY1; format: biochemical, Saponaria vaccaria; conditions: 200 μM substrate, 3.6 μM PCY1
Description: (§2) All kinetic measurements (activity tests, progress curves and initial-rate experiments) were performed as discontinuous assays analyzing samples via LC/MS or MALDI (10-mer activity test). Reactions were performed in 20 mM Tris pH 8.5, 100 mM NaCl, 5 mM DTT (for progress curves 0.2 mg mL-1 BSA was included).17 Reactions were performed at 30° C. and at various time points 50 μL samples were quenched with 20 μL of 6% (v/v) TFA. Samples (50 μL) were loaded onto a ZORBAX SBC18, 5 μm, 9.4 mm×50 mm (Agilent) column connected to an Agilent LC-MS instrument (G6130B Single Quad, Agilent Technologies). Reactants were separated from products using a gradient from A (H2O with 0.1% formic acid) to 80% B (acetonitrile), at a rate of 1.5 mL/min for 8.75 min. For data analysis, ion count peaks and UV absorbance peaks were integrated using Agilent ChemStation software. For data analysis involving quantitative mass spec integration, calibration curves with macrocyclic peptide product were performed in triplicate in order to linearly correlate ion counts to cyclic product concentration. Data fitting and plotting was performed with Prism 6.
PCY1 extracted from S. vaccaria seeds has been previously described to have a turnover number of ˜1 h^−1 for PresegA1.^17 The enzyme produced heterologously in E. coli was evaluated by LC/MS-based time course experiments macrocyclizing 200 μM of PresegA1, PresegB1 or PresegF1 with 3.6 μM PCY1. […] We chose to investigate the slowest and fastest substrate by steady-state kinetics using an LC/MS assay and UV280 nm quantification. […] Under the ITC conditions, the measured kcat (0.14±0.01 s^−1) was a factor of three lower than the LC/MS derived values. […] Therefore, we resorted to an LC/MS assay followed by quantification using mass ion counts, relying on a calibration curve employing the macrocyclic peptide product as a standard (FIG. 2b).

PCY1 [8] = assay: LC/MS steady-state kinetics of macrocyclisation by PCY1; format: biochemical, Saponaria vaccaria
Description: as §2
PCY1 extracted from S. vaccaria seeds has been previously described to have a turnover number of ˜1 h^−1 for PresegA1.^17 The enzyme produced heterologously in E. coli was evaluated by LC/MS-based time course experiments macrocyclizing 200 μM of PresegA1, PresegB1 or PresegF1 with 3.6 μM PCY1. These substrates were chosen as they produce 6, 5 and 9 residue macrocycles, respectively, show variability in the length of the C-terminal tail sequence, and have a different C-terminal core residue (proline in PresegF1, alanine in the other two) (FIG. 1b). PresegB1 was completely macrocyclized in ˜30 min, PresegA1 in ˜50 min and PresegF1 in >3 h (FIG. 2a). We chose to investigate the slowest and fastest substrate by steady-state kinetics using an LC/MS assay and UV280 nm quantification. […] Under the ITC conditions, the measured kcat (0.14±0.01 s^−1) was a factor of three lower than the LC/MS derived values. […] Therefore, we resorted to an LC/MS assay followed by quantification using mass ion counts, relying on a calibration curve employing the macrocyclic peptide product as a standard (FIG. 2b).

PCY1 [9] = assay: Single injection kinetic ITC with PCY1; format: biochemical, Saponaria vaccaria; conditions: 30° C.
Description: as §1, with “used. All peptides were used at 200 μM except for presegetalin A1-NH2 (700 μM).” for “used.”

[10] = target: T5, GmPOPB_S577A (Galerina marginata), H2E7Q8; assay: ITC, peptide titrated into GmPOPB_S577A, 20 C
T5 chain: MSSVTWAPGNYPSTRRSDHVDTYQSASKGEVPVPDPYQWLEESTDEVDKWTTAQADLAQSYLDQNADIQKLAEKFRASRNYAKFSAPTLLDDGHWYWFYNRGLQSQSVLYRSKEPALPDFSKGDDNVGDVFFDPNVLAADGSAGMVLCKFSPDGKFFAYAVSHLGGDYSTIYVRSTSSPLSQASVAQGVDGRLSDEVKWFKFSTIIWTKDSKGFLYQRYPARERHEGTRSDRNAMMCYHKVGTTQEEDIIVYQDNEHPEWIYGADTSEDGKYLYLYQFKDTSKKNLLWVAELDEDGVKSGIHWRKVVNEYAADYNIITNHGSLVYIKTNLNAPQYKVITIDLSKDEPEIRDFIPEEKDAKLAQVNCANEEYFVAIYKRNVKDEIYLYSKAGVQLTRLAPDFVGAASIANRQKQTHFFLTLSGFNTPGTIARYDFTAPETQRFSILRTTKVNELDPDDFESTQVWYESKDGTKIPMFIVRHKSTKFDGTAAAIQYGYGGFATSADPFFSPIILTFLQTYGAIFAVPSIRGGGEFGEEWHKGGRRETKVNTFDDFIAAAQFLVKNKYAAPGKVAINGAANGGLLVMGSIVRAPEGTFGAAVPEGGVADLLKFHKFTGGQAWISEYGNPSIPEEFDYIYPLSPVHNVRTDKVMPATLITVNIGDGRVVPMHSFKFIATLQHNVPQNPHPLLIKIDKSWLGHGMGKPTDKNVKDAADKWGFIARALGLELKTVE

PresegB1 = assay: Activity test of PCY1 variants with PresegB1 as substrate; format: biochemical, Saponaria vaccaria

FSA-8Aoc-SKPIQT-NH2
conversion rate overnight (PCY1 [1]): around 50%

WTAEHVDQTLASGNDIC [17mer-recogSeq, reference compound]
Kd (GmPOPB_S577A [2]): 430 ± 10 nM
difference in ΔG between the 17mer recognition sequence and the 25mer peptide (GmPOPB_S577A [3]): 1.34 kcal/mol

GmPOPB (Galerina marginata POPB), wild type
Km, Michaelis-Menten kinetics of macrocyclisation [4]: the 13mer substrate has a Km (25 µM)
Km, Michaelis-Menten kinetics of macrocyclisation (25mer substrate): the 25mer substrate (50 µM)
Km, Michaelis-Menten kinetics of macrocyclisation [5]: the 14mer possesses higher Km (380 µM)

VGAG-8Aoc-FPIQT-NH2
conversion overnight (in words) (PCY1 [1]): almost entirely converted

PresegA1: native linear PCY1 substrate presegetalin A1; produces a 6 residue macrocycle (GVPVWAFQAKDVENASAPV; PresegA1)
turnover number (PCY1 [6]): ~1 h⁻¹
Kd (PCY1:S562A): ~200 nM
time until completely macrocyclized (PCY1 [7]): ~50 min

PresegB1: native linear PCY1 substrate presegetalin B1; produces a 5 residue macrocycle (GVAWAFQAKDVENASAPV)
kcat (table head prints kout) (PCY1 [8]; LC/MS (UV280 nm), 30° C.): 0.37 ± 0.02 s⁻¹
Km (PCY1 [8]; LC/MS (UV280 nm), 30° C., read-out: Km (table head prints Kin)): 0.45 ± 0.17 µM
processing by PCY1 (in words) (PCY1 [8]; steady state kinetics, FIG. 7): rapidly processed
kcat (table head prints kout) (PCY1 [9]): 0.14 ± 0.01 s⁻¹
Km (PCY1 [9]; read-out: Km (table head prints Kin)): 0.25 ± 0.01 µM
Kd (PCY1:S562A): ~200 nM
time until completely macrocyclized (PCY1 [7]): ~30 min

B1: 35mer substrate (GmAMA1) (peptide)
peptide: MFDTNATRLPIWGIGCNPWTAEHVDQTLASGNDIC
modifications: not checked
Kd [10]: 120 nM

B2: S562A: PCY1 variant (protein)
chain: MATSGFSKPLHYPPVRRDETVVDDYFGVKVADPYRWLEDPNSEETKEFVDNQEKLANSVLEECELIDKFKQKIIDFVNFPRCGVPFRRANKYFHFYNSGLQAQNVFQMQDDLDGKPEVLYDPNLREGGRSGLSLYSVSEDAKYFAFGIHSGLTEWVTIKILKTEDRSYLPDTLEWVKFSPAIWTHDNKGFFYCPYPPLKEGEDHMTRSAVNQEARYHFLGTDQSEDILLWRDLENPAHHLKCQITDDGKYFLLYILDGCDDANKVYCLDLTKLPNGLESFRGREDSAPFMKLIDSFDASYTAIANDGSVFTFQTNKDAPRKKLVRVDLNNPSVWTDLVPESKKDLLESAHAVNENQLILRYLSDVKHVLEIRDLESGALQHRLPIDIGSVDGITARRRDSVVFFKFTSILTPGIVYQCDLKNDPTQLKIFRESVVPDFDRSEFEVKQVFVPSKDGTKIPIFIAARKGISLDGSHPCEMHGYGGFGINMMPTFSASRIVFLKHLGGVFCLANIRGGGEYGEEWHKAGFRDKKQNVFDDFISAAEYLISSGYTKARRVAIEGGANGGLLVAACINQRPDLFGCAEANCGVMDMLRFHKFTLGYLWTGDYGCSDKEEEFKWLIKYSPIHNVRRPWEQPGNEETQYPATMILTADHDDRVVPLHSFKLLATMQHVLCTSLEDSPQKNPIIARIQRKAAHYGRATMTQIAEVADRYGFMAKALEAPWID
relative activity of PCY1 variant (in words) (PresegB1): inactive
